According to publication PMC3573846 (International journal of pharmaceutics, 2012):
Each block holds one compound with its values, some of them ahead of it.

Assays:
[1] = system: P-gp and Bcrp1 at the mouse BBB; conditions: zosuquidar 25 mg/kg or Ko143 10 mg/kg i.v. 30 min prior to pazopanib 5 mg/kg i.v.; 60 min post dose
[2] = system: P-gp at BBB; conditions: mouse, in vivo; cited from earlier work
[3] = Bi-directional transport across MDCK-WT monolayers; format: in vitro ADME, canine; conditions: dog
[4] = in vivo; conditions: male, mouse, 5 mg/kg
[5] = Brain accumulation and plasma pharmacokinetics of pazopanib in FVB mice; conditions: for half-life: 5 mg/kg
[6] = target: T1, Bcrp1, MDCKII-Bcrp1 transfected cells (Mus musculus, UniProt Q7TMS5); test: Cellular accumulation of pazopanib in MDCKII-Bcrp1 vs WT cells; format: in vitro ADME, murine; conditions: 0.1 μM pazopanib, 60 min, no inhibitor
T1 sequence (Q7TMS5 1-657): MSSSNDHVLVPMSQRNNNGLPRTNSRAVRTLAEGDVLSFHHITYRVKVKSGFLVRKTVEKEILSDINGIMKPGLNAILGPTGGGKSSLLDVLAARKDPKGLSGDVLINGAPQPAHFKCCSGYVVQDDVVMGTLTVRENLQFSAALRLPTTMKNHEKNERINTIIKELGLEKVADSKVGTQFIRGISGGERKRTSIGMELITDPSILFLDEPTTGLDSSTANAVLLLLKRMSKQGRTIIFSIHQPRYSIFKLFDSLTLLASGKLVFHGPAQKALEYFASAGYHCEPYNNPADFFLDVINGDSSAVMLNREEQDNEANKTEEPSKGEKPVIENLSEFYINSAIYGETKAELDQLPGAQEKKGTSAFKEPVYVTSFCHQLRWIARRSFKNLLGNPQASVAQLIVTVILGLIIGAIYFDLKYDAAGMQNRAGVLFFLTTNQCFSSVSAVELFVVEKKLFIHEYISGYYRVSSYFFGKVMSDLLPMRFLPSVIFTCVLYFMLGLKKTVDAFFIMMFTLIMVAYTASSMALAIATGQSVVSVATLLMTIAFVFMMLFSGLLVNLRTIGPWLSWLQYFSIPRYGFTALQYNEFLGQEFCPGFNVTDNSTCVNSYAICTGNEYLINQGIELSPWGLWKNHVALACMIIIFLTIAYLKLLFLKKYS

[7] = target: P-gp (MDR1), MDCKII-MDR1 transfected cells (Homo sapiens, UniProt P08183); test: Cellular accumulation of pazopanib in MDCKII-MDR1 vs WT cells; format: in vitro ADME; conditions: 0.1 μM pazopanib, 60 min, no inhibitor
[8] = target: P-gp (MDR1), MDCK-MDR1 cell monolayers (Homo sapiens, UniProt P08183); test: Bi-directional transport across MDCK-MDR1 monolayers; format: in vitro ADME
[9] = target: P-gp (MDR1) (Homo sapiens, UniProt P08183); test: as above; format: in vitro ADME; conditions: dog
[10] = target: T2, Bcrp1, MDCK-Bcrp1 cell monolayers (Mus musculus, UniProt Q7TMS5); test: Bi-directional transport across MDCK-Bcrp1 monolayers; format: in vitro ADME, murine
T2 sequence (Q7TMS5 1-657): T1 sequence (Q7TMS5 1-657)

[11] = target: T3, Bcrp1 (murine) (Mus musculus, UniProt Q7TMS5); test: as above; format: in vitro ADME; conditions: dog
T3 sequence (Q7TMS5 1-657): T1 sequence (Q7TMS5 1-657)

[12] = target: T4, Bcrp1 (Mus musculus, UniProt Q7TMS5); test: as above; format: in vitro ADME, murine; conditions: mouse, Efflux ratio, MDCK-Bcrp1, 5 μM pazopanib, no inhibitor
T4 sequence (Q7TMS5 1-657): T1 sequence (Q7TMS5 1-657)

[13] = brain, pazopanib 5 mg/kg i.v. + elacridar (GF120918) 10 mg/kg
[14] = brain, pazopanib alone, 5 mg/kg i.v. bolus
[15] = plasma, pazopanib 5 mg/kg i.v. + elacridar (GF120918) 10 mg/kg
[16] = plasma, pazopanib alone, 5 mg/kg i.v. bolus
[17] = in vitro MDCKII cell monolayers

Sequence of P-gp (MDR1) (P08183 whole entry): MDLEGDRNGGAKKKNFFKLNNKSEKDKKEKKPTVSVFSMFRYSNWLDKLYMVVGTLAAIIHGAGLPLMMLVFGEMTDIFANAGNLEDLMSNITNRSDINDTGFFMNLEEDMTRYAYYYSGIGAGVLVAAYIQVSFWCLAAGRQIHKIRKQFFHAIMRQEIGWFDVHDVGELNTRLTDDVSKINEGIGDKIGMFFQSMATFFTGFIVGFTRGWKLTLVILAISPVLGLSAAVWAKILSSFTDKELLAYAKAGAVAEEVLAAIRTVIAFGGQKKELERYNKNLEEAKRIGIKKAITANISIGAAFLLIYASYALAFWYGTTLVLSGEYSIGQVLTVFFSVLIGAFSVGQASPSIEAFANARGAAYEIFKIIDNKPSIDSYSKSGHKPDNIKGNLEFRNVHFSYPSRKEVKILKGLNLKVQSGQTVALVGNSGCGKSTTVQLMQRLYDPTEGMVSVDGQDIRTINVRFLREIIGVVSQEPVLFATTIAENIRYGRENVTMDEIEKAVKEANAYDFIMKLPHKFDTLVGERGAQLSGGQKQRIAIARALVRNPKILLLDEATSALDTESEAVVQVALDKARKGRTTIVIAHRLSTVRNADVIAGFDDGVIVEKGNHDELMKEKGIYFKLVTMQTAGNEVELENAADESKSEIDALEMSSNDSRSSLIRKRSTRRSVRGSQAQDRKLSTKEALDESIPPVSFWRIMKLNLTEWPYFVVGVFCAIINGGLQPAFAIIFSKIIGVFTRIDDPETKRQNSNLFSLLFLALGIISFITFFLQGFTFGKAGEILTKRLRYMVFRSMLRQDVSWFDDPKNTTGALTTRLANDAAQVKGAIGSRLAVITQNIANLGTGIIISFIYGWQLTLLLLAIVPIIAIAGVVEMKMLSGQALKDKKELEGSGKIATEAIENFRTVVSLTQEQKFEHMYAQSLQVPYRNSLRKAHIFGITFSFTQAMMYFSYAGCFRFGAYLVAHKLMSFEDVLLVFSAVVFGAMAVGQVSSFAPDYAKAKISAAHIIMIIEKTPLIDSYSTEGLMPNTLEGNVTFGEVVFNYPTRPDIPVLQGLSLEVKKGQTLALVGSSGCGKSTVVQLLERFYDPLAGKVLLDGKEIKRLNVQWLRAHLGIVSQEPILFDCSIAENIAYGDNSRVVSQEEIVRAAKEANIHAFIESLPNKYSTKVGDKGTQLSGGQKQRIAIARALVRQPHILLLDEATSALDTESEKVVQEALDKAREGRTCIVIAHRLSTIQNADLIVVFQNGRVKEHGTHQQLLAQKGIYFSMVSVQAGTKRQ
Sequence of P-gp (MDR1), MDCK-MDR1 cell monolayers (P08183 whole entry): as above
Sequence of P-gp (MDR1), MDCKII-MDR1 transfected cells (P08183 whole entry): as above

SMILES: O[C@@H](COc1cccc2ncccc12)CN1CCN([C@@H]2c3ccccc3[C@@H]3[C@H](c4ccccc42)C3(F)F)CC1 [zosuquidar]
- Effect on pazopanib brain concentration [1]: did not significantly alter
- Enhanced brain penetration of paclitaxel upon co-administration [2]: ~ 5.6 fold

SMILES: COc1ccc2c3c([nH]c2c1)[C@H](CC(C)C)N1C(=O)[C@H](CCC(=O)OC(C)(C)C)NC(=O)[C@@H]1C3 [Ko143]
- Effect on pazopanib brain concentration [1]: did not significantly alter

- Papp A→B at 240 min, 5 μM [3]: 2.92 ± 0.33 ×10⁻⁶ cm/s
- Papp B→A at 240 min, 5 μM [3]: 3.1 ± 0.22 ×10⁻⁶ cm/s
- efflux ratio at 240 min, 5 μM [3]: 1.06
- k el ([4]; FVB wild type, brain, iv): 0.000103 s⁻¹
- Kp ([4]; FVB wild type, brain/plasma, iv): 0.015
- Vd ([4]; FVB wild type, plasma, iv): 0.286 L/kg
- clearance ([4]; FVB wild type, plasma, iv): 2.38 mL/min/kg
- k el ([4]; FVB wild type, plasma, iv): 0.000139 s⁻¹
- concentration at 15 min ([4]; FVB, brain, intravenous): 293 ± 52 ng/g
- concentration at 30 min ([4]; FVB, brain, intravenous): 157 ± 2 ng/g
- concentration at 60 min ([4]; FVB, brain, intravenous): 95 ± 11 ng/g
- half-life ([4]; FVB, brain, iv): 1.9 h
- Kp at 30 min ([4]; FVB, brain/plasma, intravenous): 0.0113 ± 0.005
- Kp at 60 min ([4]; FVB, brain/plasma, intravenous): 0.009 ± 0.001
- half-life ([4]; FVB, plasma, iv): 1.4 h
- AUC (0 → tlast) [5, 13]: 0.042 ± 0.003 mg·min/mL
- λz [5, 13]: 0.25 h⁻¹
- AUC (0 → tlast) [5, 14]: 0.020 ± 0.001 mg·min/mL
- half-life [5, 14]: 1.89 h
- AUC (0 → tlast) [5, 15]: 1.029 ± 0.071 mg·min/mL
- Volume of distribution [5, 15]: 0.39822 L/kg
- clearance [5, 15]: 2.49 mL/min/kg
- λz ([5]; plasma, pazopanib 5 mg/kg i.v. + elacridar (GF120918) 10 mg/kg i.v. 30 min prior): 0.38 h⁻¹
- AUC (0 → tlast) [5, 16]: 1.356 ± 0.043 mg·min/mL
- half-life [5, 16]: 1.39 h
- Pazopanib accumulation in Bcrp1 overexpressing cells relative to WT cells [6]: approximately 5 % of WT cells
- Pazopanib accumulation in MDR1 overexpressing cells relative to WT cells [7]: 60 % of WT cells
- Efflux ratio ([8]; MDCK-MDR1, 5 μM pazopanib + 1 μM zosuquidar (LY)): 1.07
- Substrate classification for P-gp [8, 17]: moderate substrate
- Papp A→B at 240 min, 5 μM ([9]; MDCK-MDR1): 3.73 ± 0.17 ×10⁻⁶ cm/s
- Papp B→A at 240 min, 5 μM ([9]; MDCK-MDR1): 6.3 ± 0.56 ×10⁻⁶ cm/s
- efflux ratio at 240 min, 5 μM ([9]; MDCK-MDR1, Efflux ratio, MDCK-MDR1, 5 μM pazopanib, no inhibitor): 1.7
- Efflux ratio ([10]; MDCK-Bcrp1, 5 μM pazopanib, no inhibitor): 47.1
- Substrate classification for Bcrp1 [10, 17]: high affinity substrate
- Papp A→B at 240 min, 5 μM [11]: 0.2 ± 0.04 ×10⁻⁶ cm/s
- Papp B→A at 240 min, 5 μM [11]: 9.71 ± 0.09 ×10⁻⁶ cm/s
- efflux ratio at 240 min, 5 μM ([11]; with Ko143 200 nM, Efflux ratio, MDCK-Bcrp1, 5 μM pazopanib + 200 nM Ko143): 1.35
- efflux ratio at 240 min, 5 μM [12]: 47
SMILES: Cc1ccc(Nc2nccc(N(C)c3ccc4c(C)n(C)nc4c3)n2)cc1S(N)(=O)=O [Pazopanib]
